Results reported in US11407736B2 (priority 2019, dated 2022).
Where a name gives a salt, the structure may show the parent alone. Read-outs that look alike come from different tables or passages of the source.

Columns and labels:
RIPK1 = RIPK1 (Homo sapiens (Human), UniProt Q13546); assay: RIPK1 ADP-Glo biochemical kinase assay; conditions: read-out: RIPK1 ADP-Glo Kinase (IC50)
Procedure: The final reaction volume was 5.0ul.
Adding 5 μl of ADP-Glo™ terminated the reaction.

L929 cells = assay: L929 cell necroptosis assay (TNFa + zVAD, CellTiter-Glo); format: cell-based, murine
Method in brief: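 Necroptosis was read as CellTiter-Glo luminescence 18 hours after TNFa stimulation at 37° C, 5% CO2. Prior to that, L929 cells (10K/well, plated 18 h) received fresh medium with 40 uM zVAD-fmk plus 4-fold serially diluted compound.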

U937 cells = assay: U937 cell necroptosis assay (TNFa + zVAD, CellTiter-Glo); format: cell-based, human
Method in brief: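 Necroptosis was induced with TNFa at 2 ng/mL final for 18 h at 37 °C, following 1 h compound pre-incubation in the presence of zVAD-fmk (60 uM for U937 plating medium, 40 uM for L929 medium). Luminescent CellTiter-Glo signal gave relative cell survival.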

[1] = Mus musculus, L929, read-out: L929-CTG-recovery, L929, TNFa + zVAD (IC50), L929 cells, TNFa + zVAD
[2] = Mus musculus, L929, L929 cells, TNFa + zVAD, read-out: L929-CTG-recovery, L929, TNFa + zVAD (IC50)
[3] = Homo sapiens, U-937, U937 cells, TNFa + zVAD, read-out: U937 Zvad TNF CTG Recovery, U937, TNFa + zVAD (IC50)

Chain of RIPK1 (Q13546 whole entry, species assumed): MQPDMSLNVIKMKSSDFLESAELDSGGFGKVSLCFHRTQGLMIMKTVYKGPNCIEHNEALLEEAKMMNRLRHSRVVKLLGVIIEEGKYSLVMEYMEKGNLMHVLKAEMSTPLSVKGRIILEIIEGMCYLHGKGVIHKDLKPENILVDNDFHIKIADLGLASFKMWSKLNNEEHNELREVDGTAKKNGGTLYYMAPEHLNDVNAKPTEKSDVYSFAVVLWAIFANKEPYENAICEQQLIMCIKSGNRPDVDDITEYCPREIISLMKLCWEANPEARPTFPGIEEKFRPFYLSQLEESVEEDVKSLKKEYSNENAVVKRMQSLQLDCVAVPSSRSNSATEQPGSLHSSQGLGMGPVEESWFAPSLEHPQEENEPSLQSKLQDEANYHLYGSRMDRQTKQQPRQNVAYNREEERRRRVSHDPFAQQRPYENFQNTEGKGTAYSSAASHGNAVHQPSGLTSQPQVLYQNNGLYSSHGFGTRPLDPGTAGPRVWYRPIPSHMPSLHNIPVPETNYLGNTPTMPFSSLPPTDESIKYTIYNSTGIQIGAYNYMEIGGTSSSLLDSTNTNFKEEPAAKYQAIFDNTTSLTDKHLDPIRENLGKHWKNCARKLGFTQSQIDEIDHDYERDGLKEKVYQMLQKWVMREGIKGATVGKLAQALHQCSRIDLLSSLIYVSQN

`COc1ccc(-c2ccnc(C(=O)N[C@H]3COc4ccc(C#CC(C)(C)O)cc4N(C)C3=O)c2)cc1` [II-22, (S)—N-(7-(3-hydroxy-3-methylbut-1-yn-1-yl)-5-methyl-4-oxo-2,3,4,5-tetrahydrobenzo[b][1,4]oxazepin-3-yl)-4-(4-methoxyphenyl)picolinamide] was tested, and the IC50 (RIPK1) was 310 nM, the IC50 (L929 cells; [1]) was 56000 nM and the IC50 (U937 cells; Homo sapiens, U-937, read-out: U937 Zvad TNF CTG Recovery, U937, TNFa + zVAD (IC50), U937 cells, TNFa + zVAD) was 580 nM.

Work on `CN1C(=O)[C@@H](NC(=O)c2n[nH]c(Cc3ccccc3)n2)COc2ccc(C#CCCOc3ccc4cccnc4c3)cc21` [Compound I-41, (S)-5-benzyl-N-(5-methyl-4-oxo-7-(4-(quinolin-7-yloxy)but-1-yn-1-yl)-2,3,4,5-tetrahydrobenzo[b][1,4]oxazepin-3-yl)-1H-1,2,4-triazole-3-carboxamide] yielded an IC50 (RIPK1) of 80 nM, an IC50 (L929 cells; [2]) of 1.6 nM and an IC50 (U937 cells; [3]) of 5.2 nM.

In the case of `CN1C(=O)[C@@H](NC(=O)c2n[nH]c(Cc3ccccc3)n2)COc2ccc(C#CC3(O)COC3)cc21` [Compound I-57, (S)-5-benzyl-N-(7-((3-hydroxyoxetan-3-yl)ethynyl)-5-methyl-4-oxo-2,3,4,5-tetrahydrobenzo[b][1,4]oxazepin-3-yl)-1H-1,2,4-triazole-3-carboxamide], the IC50 (RIPK1) is reported as 21.5 nM, the IC50 (L929 cells; [2]) is reported as 0.9 nM and the IC50 (U937 cells; [3]) is reported as 3 nM.

Compound `CN1C(=O)[C@@H](NC(=O)c2cc(Oc3ccccc3)ccn2)COc2cc(C#CC(C)(C)O)ccc21` [Compound I-64, (S)—N-(8-(3-hydroxy-3-methylbut-1-yn-1-yl)-5-methyl-4-oxo-2,3,4,5-tetrahydrobenzo[b][1,4]oxazepin-3-yl)-4-phenoxypicolinamide] has an IC50 (RIPK1) of 19 nM, an IC50 (L929 cells; [2]) of 0.1 nM and an IC50 (U937 cells; [3]) of 0.5 nM.

`Cc1cccc(C)c1Cn1cnc(C(=O)N[C@H]2COc3ccc(C#CC(C)(C)C)cc3N(C)C2=O)n1` [Compound I-90, (S)-1-(2,6-dimethylbenzyl)-N-(7-(3,3-dimethylbut-1-yn-1-yl)-5-methyl-4-oxo-2,3,4,5-tetrahydrobenzo[b][1,4]oxazepin-3-yl)-1H-1,2,4-triazole-3-carboxamide] showed an IC50 (RIPK1) of 365 nM, an IC50 (L929 cells; [2]) of 4.6 nM and an IC50 (U937 cells; [3]) of 9.1 nM.

`CN1C(=O)[C@@H](NC(=O)c2ncn(Cc3ccccc3)n2)COc2ccc(C#CCCOc3cccc4ncccc34)cc21` [Compound I-44, (S)-1-benzyl-N-(5-methyl-4-oxo-7-(4-(quinolin-5-yloxy)but-1-yn-1-yl)-2,3,4,5-tetrahydrobenzo[b][1,4]oxazepin-3-yl)-1H-1,2,4-triazole-3-carboxamide] was tested, and the IC50 (RIPK1) was 34 nM, the IC50 (L929 cells; [2]) was 0.2 nM and the IC50 (U937 cells; [3]) was 1.1 nM.

`Cc1c(Cc2ccccc2)cnn1C(=O)N[C@H]1COc2ccc(C#CC(C)(C)O)cc2N(C)C1=O` [Compound I-220, (S)-4-Benzyl-N-(7-(3-hydroxy-3-methylbut-1-yn-1-yl)-5-methyl-4-oxo-2,3,4,5-tetrahydrobenzo[b][1,4]oxazepin-3-yl)-5-methyl-1H-pyrazole-1-carboxamide] showed an IC50 (RIPK1) of 35.5 nM, an IC50 (L929 cells; [2]) of 1920 nM and an IC50 (U937 cells; [3]) of 8.9 nM.

`Cc1cccc(C)c1Cn1cnc(C(=O)N[C@H]2COc3ccc(C#CC(C)(C)O)cc3N(C)C2=O)n1` [Compound I-84, (S)-1-(2,6-dimethylbenzyl)-N-(7-(3-hydroxy-3-methylbut-1-yn-1-yl)-5-methyl-4-oxo-2,3,4,5-tetrahydrobenzo[b][1,4]oxazepin-3-yl)-1H-1,2,4-triazole-3-carboxamide] showed an IC50 (RIPK1) of 44.1 nM, an IC50 (L929 cells; [2]) of 12.2 nM and an IC50 (U937 cells; [3]) of 56.3 nM.

Compound `CN1C(=O)[C@@H](NC(=O)c2cc(OC3CCC3)ccn2)COc2ccc(C#CC(C)(C)O)cc21` [Compound I-152, (S)-4-cyclobutoxy-N-(7-(3-hydroxy-3-methylbut-1-yn-1-yl)-5-methyl-4-oxo-2,3,4,5-tetrahydrobenzo[b][1,4]oxazepin-3-yl)picolinamide] has an IC50 (RIPK1) of 10.3 nM, an IC50 (L929 cells; [2]) of 2510 nM and an IC50 (U937 cells; [3]) of 39.1 nM.

`CN1C(=O)[C@@H](NC(=O)c2n[nH]c(Cc3ccccc3)n2)COc2ccc(CCC(=O)Nc3ccc4cccnc4c3)cc21` [Compound I-12, (S)-5-benzyl-N-(5-methyl-4-oxo-7-(3-oxo-3-(quinolin-7-ylamino)propyl)-2,3,4,5-tetrahydrobenzo[b][1,4]oxazepin-3-yl)-1H-1,2,4-triazole-3-carboxamide] showed an IC50 (RIPK1) of 52 nM, an IC50 (L929 cells; [1]) of 42000 nM and an IC50 (U937 cells; [3]) of 5.3 nM.

`CN1C(=O)[C@@H](NC(=O)c2cc(Cc3ccccc3)on2)COc2ccc(C#CC(C)(C)O)cc21` [Compound I-87, (S)-5-benzyl-N-(7-(3-hydroxy-3-methylbut-1-yn-1-yl)-5-methyl-4-oxo-2,3,4,5-tetrahydrobenzo[b][1,4]oxazepin-3-yl)isoxazole-3-carboxamide] gave an IC50 (RIPK1) of 18.7 nM, an IC50 (L929 cells; [2]) of 29.2 nM and an IC50 (U937 cells; [3]) of 138 nM.

For `COC(C)(C)C#Cc1ccc2c(c1)N(C)C(=O)[C@@H](NC(=O)c1n[nH]c(Cc3ccccc3)n1)CO2` [Compound I-61, (S)-5-benzyl-N-(7-(3-methoxy-3-methylbut-1-yn-1-yl)-5-methyl-4-oxo-2,3,4,5-tetrahydrobenzo[b][1,4]oxazepin-3-yl)-1H-1,2,4-triazole-3-carboxamide], the IC50 (RIPK1) was 65.4 nM, the IC50 (L929 cells; [2]) was 1.3 nM and the IC50 (U937 cells; [3]) was 3.4 nM.

In the case of `CN1C(=O)[C@@H](NC(=O)c2n[nH]c(Cc3ccccc3)n2)COc2ccc(/C=C/C(=O)N3CCCC3)cc21` [Compound I-22, (S,E)-5-benzyl-N-(5-methyl-4-oxo-7-(3-oxo-3-(pyrrolidin-1-yl)prop-1-en-1-yl)-2,3,4,5-tetrahydrobenzo[b][1,4]oxazepin-3-yl)-1H-1,2,4-triazole-3-carboxamide], the IC50 (RIPK1) is reported as 48 nM, the IC50 (L929 cells; [2]) is reported as 3380 nM and the IC50 (U937 cells; [3]) is reported as 4.8 nM.

Compound `COC1(C#Cc2ccc3c(c2)N(C)C(=O)[C@@H](NC(=O)c2cc(Oc4ccccc4)ccn2)CO3)CNC1` [Compound I-154, (S)—N-(7-((3-methoxyazetidin-3-yl)ethynyl)-5-methyl-4-oxo-2,3,4,5-tetrahydrobenzo[b][1,4]oxazepin-3-yl)-4-phenoxypicolinamide] has an IC50 (RIPK1) of 26.7 nM, an IC50 (L929 cells; [2]) of 656 nM and an IC50 (U937 cells; [3]) of 3.5 nM.

`CN1C(=O)[C@@H](NC(=O)c2cc(Oc3ccccc3)ccn2)COc2ccc(C#CC3(OC(=O)CCC(=O)O)COC3)cc21` [Compound I-147, (S)-4-((3-((5-methyl-4-oxo-3-(4-phenoxypicolinamido)-2,3,4,5-tetrahydrobenzo[b][1,4]oxazepin-7-yl)ethynyl)oxetan-3-yl)oxy)-4-oxobutanoic acid] gave an IC50 (RIPK1) of 17.3 nM, an IC50 (L929 cells; L929 cells, TNFa + zVAD, read-out: L929-CTG-recovery, L929, TNFa + zVAD (IC50)) of 154 nM and an IC50 (U937 cells; [3]) of 1.2 nM.

`CN1C(=O)[C@@H](NC(=O)c2ncn(Cc3ccccc3)n2)COc2ccc(CN3CCn4nc(C(F)(F)F)nc4C3)cc21` [Compound I-39, (S)-1-benzyl-N-(5-methyl-4-oxo-7-((2-(trifluoromethyl)-5,6-dihydro-[1,2,4]triazolo[1,5-a]pyrazin-7(8H)-yl)methyl)-2,3,4,5-tetrahydrobenzo[b][1,4]oxazepin-3-yl)-1H-1,2,4-triazole-3-carboxamide] showed an IC50 (RIPK1) of 36.4 nM, an IC50 (L929 cells; [2]) of 0.4 nM and an IC50 (U937 cells; [3]) of 2.7 nM.

In the case of `CCN1C(=O)[C@@H](NC(=O)c2n[nH]c(Cc3ccccc3)n2)COc2ccc(C#CC(C)(C)O)cc21` [Compound I-91, (S)-5-benzyl-N-(5-ethyl-7-(3-hydroxy-3-methylbut-1-yn-1-yl)-4-oxo-2,3,4,5-tetrahydrobenzo[b][1,4]oxazepin-3-yl)-1H-1,2,4-triazole-3-carboxamide], the IC50 (RIPK1) is reported as 388 nM, the IC50 (L929 cells; [2]) is reported as 3.7 nM and the IC50 (U937 cells; [3]) is reported as 19.8 nM.

For `CN1C(=O)[C@@H](NC(=O)c2cc(Oc3ccccc3)ccn2)COc2ccc(C#CC(C)(C)N)cc21` [Compound I-167, (S)—N-(7-(3-amino-3-methylbut-1-yn-1-yl)-5-methyl-4-oxo-2,3,4,5-tetrahydrobenzo[b][1,4]oxazepin-3-yl)-4-phenoxypicolinamide hydrochloride], the IC50 (RIPK1; hydrochloride) was 17.5 nM, the IC50 (L929 cells; read-out: L929-CTG-recovery, L929, TNFa + zVAD (IC50), L929 cells, TNFa + zVAD, hydrochloride) was 1210 nM and the IC50 (U937 cells; read-out: U937 Zvad TNF CTG Recovery, U937, TNFa + zVAD (IC50), U937 cells, TNFa + zVAD, hydrochloride) was 5.3 nM.

For `CN1C(=O)[C@@H](NC(=O)c2n[nH]c(Cc3ccccc3)n2)COc2ccc(CCCCNc3ccccn3)cc21` [Compound I-17, (S)-5-benzyl-N-(5-methyl-4-oxo-7-(4-(pyridin-2-ylamino)butyl)-2,3,4,5-tetrahydrobenzo[b][1,4]oxazepin-3-yl)-1H-1,2,4-triazole-3-carboxamide], the IC50 (RIPK1) was 491 nM, the IC50 (L929 cells; [2]) was 368 nM and the IC50 (U937 cells; [3]) was 2.4 nM.

Compound `C=C(C#Cc1ccc2c(c1)N(C)C(=O)[C@@H](NC(=O)c1cc(Oc3ccc(F)cc3)ccn1)CO2)CCNC` [Compound I-138, (S)-4-(4-fluorophenoxy)-N-(5-methyl-7-(5-(methylamino)-3-methylenepent-1-yn-1-yl)-4-oxo-2,3,4,5-tetrahydrobenzo[b][1,4]oxazepin-3-yl)picolinamide] has an IC50 (RIPK1) of 76.9 nM, an IC50 (L929 cells; [2]) of 3150 nM and an IC50 (U937 cells; [3]) of 122 nM.
